Earlier results, collected in patent EP0523845A2, “New benzodiazepine analogs” (MERCK & CO. INC., priority 1991, dated 1993).

Details: cited from Deschodt-Lanckman et al., Reg. Pept. 2, 15 (1981)

Question: With `CSCC[C@H](NC(=O)[C@H](Cc1ccc(OS(=O)(=O)O)cc1)NC(=O)[C@@H](N)CC(=O)O)C(=O)NCC(=O)N[C@@H](Cc1c[nH]c2ccccc12)C(=O)N[C@@H](CCSC)C(=O)N[C@@H](CC(=O)O)C(=O)N[C@@H](Cc1ccccc1)C(N)=O` [CCK-8s, H-Asp-Tyr(S03H)-Met-Gly-Trp-Met-Asp-Phe-NH2] as the compound, how does the half-life read?
Answer: less than 1 hour
